This note sets out measurements from patent US20120322842A1, “HETEROCYCYL-SUBSTITUTED-ALKYLAMINOPHENYL DERIVATIVES, THEIR PREPARATION AND USE AS MEDICAMENTS” (LABORATORIOS DEL DR. ESTEVE, S.A., priority 2009, published 2012).

The target in the first assay is T1, Cloned Human Serotonin Receptor, Subtype 7 (h5HT7) (Homo sapiens, UniProt P34969).
T1 construct: purchased PerkinElmer 6120512; host or cells: CHO cells
T1 sequence (P34969 whole entry): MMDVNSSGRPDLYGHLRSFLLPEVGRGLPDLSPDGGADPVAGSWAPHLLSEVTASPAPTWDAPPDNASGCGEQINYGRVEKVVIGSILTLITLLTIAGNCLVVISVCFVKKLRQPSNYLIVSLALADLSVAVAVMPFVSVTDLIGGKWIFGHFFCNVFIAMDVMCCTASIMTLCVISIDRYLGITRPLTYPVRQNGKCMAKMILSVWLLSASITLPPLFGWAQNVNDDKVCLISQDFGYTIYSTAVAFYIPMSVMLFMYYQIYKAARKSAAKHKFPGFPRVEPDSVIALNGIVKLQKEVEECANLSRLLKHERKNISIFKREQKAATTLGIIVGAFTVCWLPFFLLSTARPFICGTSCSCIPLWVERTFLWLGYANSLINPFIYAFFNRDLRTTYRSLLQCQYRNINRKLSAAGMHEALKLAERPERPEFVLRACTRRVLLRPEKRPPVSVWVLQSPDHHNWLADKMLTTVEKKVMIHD
The assay is described as follows: Radioligand binding assay, [125I]LSD, cloned human 5-HT7 receptor expressed in CHO cells (Flashplate).
Conditions: not given
How it is done:
Radioligand binding assays were performed using the Cloned Human Serotonin Receptor, Subtype 7 (h5HT7), expressed in CHO cells, coated on Flashplate (Basic FlashPlate Cat.: SMP200) from PerkinElmer (Cat.: 6120512). The protocol assay was essentially the recommended protocol in the Technical Data Sheet by PerkinEmer Life and Analytical Sciences. The Mass membrane protein/well was typically […] and the Receptor/well was about 9-10 fmoles. The Flashplate were let equilibrate at room temperature for one hour before the addition of the components of the assay mixture. The binding buffer was: 50 mM Tris-HCl, pH 7.4, containing 10 mM MgCl2, 0.5 mM EDTA and 0.5% BSA. The radioligand was [^125I]LSD at a final concentration of 0.82 nM. Nonspecific binding was determined with 50 µM of Clozapine. The assay volume was 25 l. TopSeal-A were applied onto Flashplate microplates and they were incubated at room temperature for 240 minutes in darkness. The radioactivity were quantified by liquid scintillation spectrophotometry (Wallac 1450 Microbeta Trilux) with a count delay of 4 minutes prior to counting and a counting time of 30 seconds per well. Competition binding data were analyzed by using the LIGAND program (Munson and Rodbard, LIGAND: A versatile, computerized approach for characterization of ligandbinding systems. Anal. Biochem. 107: 220-239, 1980) and assays were performed in triplicate determinations for each point.
As usually defined, the Ki is the dissociation constant of the complex between target and ligand, obtained from inhibition or displacement. Take `CCc1c(C)nn(C)c1-c1ccc(OC)c(CCN(C)C)c1` [Example 3, 2-(5-(4-ethyl-1,3-dimethyl-1H-pyrazol-5-yl)-2-methoxyphenyl)-N,N-dimethyl ethanamine]: the Ki is 599 nM.

In turn, `COc1ccc(-c2c(C)c(C)nn2C)cc1CCN(C)C` [Example 9, 2-(2-methoxy-5-(1,3,4-trimethyl-1H-pyrazol-5-yl)phenyl)-N,N-dimethylethanamine] showed a Ki of 113 ± 2.6 nM. On to `CCn1nc(C)c(C)c1-c1ccc(OC)c(CCN(C)C)c1` [Example 28, 2-(5-(1-ethyl-3,4-dimethyl-1H-pyrazol-5-yl)-2-methoxyphenyl)-N,N-dimethyl ethanamine], for which the affinity, expressed as Ki, was 81.9 nM. The compound `COc1ccc(-c2c(C)c(C)nn2C(C)C)cc1CCN(C)C` [Example 31, 2-(5-(1-isopropyl-3,4-dimethyl-1H-pyrazol-5-yl)-2-methoxyphenyl)-N,N-dimethyl ethanamine] came in with a Ki of 83.1 nM.

Staying with this assay, now noted: h5HT7 expressed in CHO cells; radioligand [125I]LSD 0.82 nM; nonspecific binding with clozapine; triplicate determinations; read-out: 5-HT7 Ki.
As to `CCc1c(C)nn(C)c1-c1cccc(CCN(C)C)c1` [Example 2, 2-(3-(4-ethyl-1,3-dimethyl-1H-pyrazol-5-yl)phenyl)-N,N-dimethylethanamine], the Ki was 597 nM. Turning to `CCc1c(C)nn(C)c1-c1ccc(O)c(CCN(C)C)c1` [Example 4, 2-(2-(dimethylamino)ethyl)-4-(4-ethyl-1,3-dimethyl-1H-pyrazol-5-yl)phenol], the Ki came out at 577 ± 81.6 nM. For `Cc1nn(C)c(-c2cccc(CCN(C)C)c2)c1C` [Example 8, N,N-dimethyl-2-(3-(1,3,4-trimethyl-1H-pyrazol-5-yl)phenyl)ethanamine], the Ki turned out to be 261 ± 102 nM. Regarding `Cc1nn(C)c(-c2ccc(O)c(CCN(C)C)c2)c1C` [Example 10, 2-(2-(dimethylamino)ethyl)-4-(1,3,4-trimethyl-1H-pyrazol-5-yl)phenol], the Ki came out at 102 nM. As to `CNCCc1cc(-c2c(C)c(C)nn2C)ccc1O` [Example 11, 2-(2-(methylamino)ethyl)-4-(1,3,4-trimethyl-1H-pyrazol-5-yl)phenol], the Ki turned out to be 23.5 ± 5.2 nM. Turning to `COc1ccc(-c2c(-c3ccccc3)c(C)nn2-c2ccccc2)cc1CCN(C)C` [Example 19, 2-(2-methoxy-5-(3-methyl-1,4-diphenyl-1H-pyrazol-5-yl)phenyl)-N,N-dimethyl ethanamine], the Ki stood at 447 ± 64.8 nM. Same read-out and setting: to `COc1ccc(-c2c(C)c(C)nn2-c2ccccc2)cc1CCN(C)C` [Example 22, 2-(5-(3,4-dimethyl-1-phenyl-1H-pyrazol-5-yl)-2-methoxyphenyl)-N,N-dimethyl ethanamine] belongs 391 nM. Consider `Cc1nn(-c2ccccc2)c(-c2ccc(O)c(CCN(C)C)c2)c1C` [Example 23, 4-(3,4-dimethyl-1-phenyl-1H-pyrazol-5-yl)-2-(2-(dimethylamino)ethyl)phenol], for which the Ki stood at 611 nM. Regarding `COc1ccc(-c2c3c(nn2-c2ccccc2)CCCC3)cc1CCN(C)C` [Example 25, 2-(2-methoxy-5-(2-phenyl-4,5,6,7-tetrahydro-2H-indazol-3-yl)phenyl)-N,N-dimethyl ethanamine], the inhibitory constant (Ki) amounted to 420 nM. Turning to `CCn1nc(C)c(C)c1-c1ccc(O)c(CCN(C)C)c1` [Example 29, 2-(2-(dimethylamino)ethyl)-4-(1-ethyl-3,4-dimethyl-1H-pyrazol-5-yl)phenol], the Ki was determined as 102 nM. Still for that read-out and setting: to `Cc1nn(C(C)C)c(-c2cccc(CCN(C)C)c2)c1C` [Example 30, 2-(3-(1-isopropyl-3,4-dimethyl-1H-pyrazol-5-yl)phenyl)-N,N-dimethylethanamine] belongs 300 nM; to `Cc1nn(C(C)C)c(-c2ccc(O)c(CCN(C)C)c2)c1C` [Example 32, 2-(2-(dimethylamino)ethyl)-4-(1-isopropyl-3,4-dimethyl-1H-pyrazol-5-yl)phenol], 150 nM. With `Cc1nn(CC(F)(F)F)c(-c2cccc(CCN(C)C)c2)c1C` [Example 33, 2-(3-(3,4-dimethyl-1-(2,2,2-trifluoroethyl)-1H-pyrazol-5-yl)phenyl)-N,N-dimethyl ethanamine], the Ki stood at 527 nM. As for `COc1ccc(-c2c(C)c(C)nn2CC(F)(F)F)cc1CCN(C)C` [Example 34, 2-(5-(3,4-dimethyl-1-(2,2,2-trifluoroethyl)-1H-pyrazol-5-yl)-2-methoxyphenyl)-N,N-dimethyl ethanamine], the Ki amounted to 146 nM. Still for that read-out and setting: to `Cc1nn(CC(F)(F)F)c(-c2ccc(O)c(CCN(C)C)c2)c1C` [Example 35, 4-(3,4-dimethyl-1-(2,2,2-trifluoroethyl)-1H-pyrazol-5-yl)-2-(2-(dimethylamino)ethyl)phenol] belongs 320 nM.
